The target of the test is T1, Human GO (Homo sapiens, UniProt Q9UJM8).
T1 construct: purchased Novus Biologicals NBP1-72412
T1 sequence (Q9UJM8 1-370): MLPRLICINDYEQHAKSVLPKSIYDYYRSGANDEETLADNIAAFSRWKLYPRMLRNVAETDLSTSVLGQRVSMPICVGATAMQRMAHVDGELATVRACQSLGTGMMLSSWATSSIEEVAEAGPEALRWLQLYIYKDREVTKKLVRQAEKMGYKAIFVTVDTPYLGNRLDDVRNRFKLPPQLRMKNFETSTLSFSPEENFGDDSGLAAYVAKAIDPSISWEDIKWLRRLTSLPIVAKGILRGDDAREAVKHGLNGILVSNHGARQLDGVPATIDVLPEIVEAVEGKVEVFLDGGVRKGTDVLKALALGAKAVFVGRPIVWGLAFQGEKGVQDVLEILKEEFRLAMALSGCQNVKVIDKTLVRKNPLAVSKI
Put plainly: GO enzymatic assay (coupled fluorescence/HRP assay, glycolate substrate). Type of test: biochemical. Conditions: Table 4; read-out: Range (range of IC50 values calculated from the enzymatic assays). The essentials:
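Coupled HRP/fluorescence read-out of glycolate oxidation by human GO in 50 mM potassium phosphate buffer (pH 7). Inhibitors added across a concentration range.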

pIC50: −log10 of the molar value. Where only a bound is given, the exact number is not on record here.

By pIC50 is commonly meant −log10 of the IC50, conventionally taken in molar units.

As for `O=C(O)c1[nH]nnc1O[C@H]1CC[C@H](c2ccc(OC(F)(F)F)c(C3CCC3)c2)CC1` [Example 484, 4-(((trans)-4-(3-cyclobutyl-4-(trifluoromethoxy)phenyl)cyclohexyl)oxy)-1H-1,2,3-triazole-5-carboxylic acid], the negative logarithm of the IC50 (pIC50) was more than 7.00.

As for `COCCc1cc(-c2ccc([C@H]3CC[C@H](Oc4nn[nH]c4C(=O)O)CC3)cc2)[nH]n1` [Example 485, 4-(((trans)-4-(4-(3-(2-methoxyethyl)-1H-pyrazol-5-yl)phenyl)cyclohexyl)oxy)-1H-1,2,3-triazole-5-carboxylic acid 2,2,2-trifluoroacetate], the pIC50 is more than 7.00.

Consider `O=C(O)c1[nH]nnc1CO[C@H]1CC[C@H](c2cc(Cl)cc(Cl)c2)CC1` [Example 486, 4-((((trans)-4-(3,5-dichlorophenyl)cyclohexyl)oxy)methyl)-1H-1,2,3-triazole-5-carboxylic acid], for which the pIC50 is more than 7.00.

Values taken from US11384055B2 (BIOMARIN PHARMACEUTICAL INC., priority 2017, dated 2022).
